# Measurements published in patent publication US11865108B2, “Nitrogen containing bicyclic compounds” (Wockhardt Limited, priority 2019, dated 2024).
# How the values were obtained:
# K. pneumoniae S 465 = test: MIC alone and in combination, K. pneumoniae S 465; type: cell-based; conditions: Klebsiella pneumoniae, S465, 18 h, beta lactamase OXA-181, ESBL, alone or in combination as labelled
# Experimental: (§1) The biological activity of representative compounds according to the invention against various bacterial strains was investigated. In a typical study, overnight grown bacterial cultures were diluted appropriately and inoculated on the agar media containing doubling dilutions of the test compounds. Observations for growth or no growth was performed after 16-20 hours of incubation at 35±2° C. in the ambient air. The overall procedure was performed as per Clinical and Laboratory Standards Institute (CLSI) recommendations, (Clinical and Laboratory Standards Institute (CLSI), Performance Standards for Antimicrobial Susceptibility Testing, 20th Informational Supplement, M07-A9, Volume 32, No. 2, 2012). Molten Mueller Hinton Agar (MHA) (BD, USA) containing serial dilutions of each antibacterial agent were poured on to the plates and allowed to solidify. Appropriate suspensions from the freshly grown cultures were prepared in normal saline so that about 10^4 CFU/spot of the organism was delivered on to the drug containing agar plates using automated multipoint inoculator (Mast, UK). The plates were incubated in Biochemical oxygen demand (BOD) incubator at 37° C. for 18 hours and then examined for growth. […] The Table 2 depicts the antibacterial activity profile of compounds according to present invention against various multidrug resistant bacterial strains.
# (§2) The antibacterial activity of compounds according to the invention was also investigated in combination with several antibacterial agents. For example, antibacterial activity of the representative compounds of Formula (I) (Example 1 and Example 2) in combination with Ceftazidime and Cefixime are summarized in Table 3.
# E. Coli 13352 = test: Agar dilution MIC, E. Coli 13352; type: cell-based; conditions: Escherichia coli
# Experimental: as §1
# K. pneumoniae B 77 = test: MIC alone and in combination, K. pneumoniae B 77; type: cell-based; conditions: Klebsiella pneumoniae, B77, 18 h, beta lactamase NDM, ESBL, alone or in combination as labelled
# Experimental: as §1, §2
# K. pneumoniae NCTC 13439 = test: MIC alone and in combination, K. pneumoniae NCTC 13439; type: cell-based; conditions: Klebsiella pneumoniae, NCTC13439, 18 h, beta lactamase VIM-1, alone or in combination as labelled
# Experimental: as §1, §2
# K. pneumoniae H 521 = test: Agar dilution MIC, K. pneumoniae H 521; type: cell-based; conditions: Klebsiella pneumoniae, H521
# Experimental: as §1
# [1] = tested on: Multi Drug Resistant (MDR) Gram negative strains; test: Antibacterial activity alone and in combination, summary of Table 3; type: cell-based, K. pneumoniae; conditions: for antibacterial effect in combination: in combination with Ceftazidime and Cefixime, highly resistant bacterial strains; for antibacterial activity when used alone: strains of Table 3
# Experimental: as §1, §2
# K. pneumoniae H 525 = test: Agar dilution MIC, K. pneumoniae H 525; type: cell-based; conditions: Klebsiella pneumoniae, H525
# Experimental: as §1
# K. pneumoniae H 523 = test: Agar dilution MIC, K. pneumoniae H 523; type: cell-based; conditions: Klebsiella pneumoniae, H523
# Experimental: as §1
# E. Coli M 36 = test: Agar dilution MIC, E. Coli M 36; type: cell-based; conditions: Escherichia coli
# Experimental: as §1
# K. pneumoniae NCTC 13443 = test: MIC alone and in combination, K. pneumoniae NCTC 13443; type: cell-based; conditions: Klebsiella pneumoniae, NCTC13443, 18 h, beta lactamase NDM, ESBL, alone or in combination as labelled
# Experimental: as §1, §2
# E. Coli 7 MP = test: Agar dilution MIC, E. Coli 7 MP; type: cell-based; conditions: Escherichia coli
# Experimental: as §1
# E. Coli M 138 = test: Agar dilution MIC, E. Coli M 138; type: cell-based; conditions: Escherichia coli
# Experimental: as §1
# E. Coli 13353 = test: Agar dilution MIC, E. Coli 13353; type: cell-based; conditions: Escherichia coli
# Experimental: as §1
# E. Coli 13351 = test: Agar dilution MIC, E. Coli 13351; type: cell-based; conditions: Escherichia coli
# Experimental: as §1
# KP ATCC 700603 = test: Agar dilution MIC, KP ATCC 700603; type: cell-based, K. pneumoniae; conditions: Klebsiella pneumoniae, ATCC700603
# Experimental: as §1
# E. Coli S 18 = test: Agar dilution MIC, E. Coli S 18; type: cell-based; conditions: Escherichia coli
# Experimental: as §1
# K. pneumoniae B 88 = test: MIC alone and in combination, K. pneumoniae B 88; type: cell-based; conditions: Klebsiella pneumoniae, B88, 18 h, beta lactamase NDM, ESBL, alone or in combination as labelled
# Experimental: as §1, §2
# E. Coli M 50 = test: Agar dilution MIC, E. Coli M 50; type: cell-based; conditions: Escherichia coli
# Experimental: as §1
# E. Coli M 49 = test: Agar dilution MIC, E. Coli M 49; type: cell-based; conditions: Escherichia coli
# Experimental: as §1
# K. pneumoniae H 522 = test: Agar dilution MIC, K. pneumoniae H 522; type: cell-based; conditions: Klebsiella pneumoniae, H522
# Experimental: as §1
MIC (K. pneumoniae S 465),MIC (E. Coli 13352),MIC (K. pneumoniae B 77),MIC (K. pneumoniae NCTC 13439),MIC (K. pneumoniae H 521),MIC (K. pneumoniae H 525),MIC (K. pneumoniae H 523),MIC (E. Coli M 36),MIC (K. pneumoniae NCTC 13443),MIC (E. Coli 7 MP),MIC (E. Coli M 138),MIC (E. Coli 13353),MIC (E. Coli 13351),MIC (KP ATCC 700603),MIC (E. Coli S 18),MIC (K. pneumoniae B 88),MIC (E. Coli M 50),MIC (E. Coli M 49),MIC (K. pneumoniae H 522),Structure (SMILES),other results
> 32 µg/mL,1 µg/mL,> 32 µg/mL,> 32 µg/mL,1 µg/mL,0.5 µg/mL,0.5 µg/mL,0.5 µg/mL,> 32 µg/mL,1 µg/mL,0.5 µg/mL,0.5 µg/mL,1 µg/mL,> 32 µg/mL,1 µg/mL,> 32 µg/mL,0.5 µg/mL,4 µg/mL,1 µg/mL,"C[C@H]1CN[C@H](CONC(=O)[C@@H]2CC[C@@H]3CN2C(=O)N3OS(=O)(=O)O)C1 [Example 1, (2S,5R)—N-{[(2S,4R)-4-methylpyrrolidin-2-yl]methyloxy}-7-oxo-6-(sulfooxy)-1,6-diazabicyclo[3.2.1]octane-2-carboxamide]",antibacterial effect in combination [1]: unusual and unexpected synergistic antibacterial effect; antibacterial activity when used alone [1]: did not exhibit significant antibacterial activity; melting point: 172 to 174 °C (dec.)
–,4 µg/mL,–,–,4 µg/mL,1 µg/mL,1 µg/mL,1 µg/mL,–,4 µg/mL,1 µg/mL,1 µg/mL,2 µg/mL,> 32 µg/mL,2 µg/mL,–,1 µg/mL,4 µg/mL,8 µg/mL,O=C(NOC[C@H]1C[C@@H](CO)CN1)[C@@H]1CC[C@@H]2CN1C(=O)N2OS(=O)(=O)O [Example 8],–
–,2 µg/mL,–,–,2 µg/mL,2 µg/mL,2 µg/mL,0.5 µg/mL,–,2 µg/mL,1 µg/mL,1 µg/mL,1 µg/mL,> 32 µg/mL,1 µg/mL,–,1 µg/mL,4 µg/mL,2 µg/mL,"C[C@H]1CN[C@@H](CONC(=O)[C@@H]2CC[C@@H]3CN2C(=O)N3OS(=O)(=O)O)C1 [Example 4, (2S,5R)—N-{[(2R,4R)-4-Methyl-pyrrolidin-2-yl]methyloxy}-7-oxo-6-(sulfooxy)-1,6-diazabicyclo[3.2.1]octane-2-carboxamide]",–
> 32 µg/mL,–,> 32 µg/mL,> 32 µg/mL,–,–,–,–,> 32 µg/mL,–,–,–,–,–,–,> 32 µg/mL,–,–,–,"C=CC1=C(C(=O)O)N2C(=O)[C@@H](NC(=O)/C(=N\OCC(=O)O)c3csc(N)n3)[C@H]2SC1 [Cefixime, reference compound]",–
–,2 µg/mL,–,–,2 µg/mL,1 µg/mL,2 µg/mL,1 µg/mL,–,2 µg/mL,1 µg/mL,1 µg/mL,1 µg/mL,> 32 µg/mL,1 µg/mL,–,1 µg/mL,4 µg/mL,2 µg/mL,O=C(NOC[C@@H]1C[C@H](CO)CN1)[C@@H]1CC[C@@H]2CN1C(=O)N2OS(=O)(=O)O [Example 6],–
–,1 µg/mL,–,–,1 µg/mL,0.5 µg/mL,0.5 µg/mL,0.5 µg/mL,–,2 µg/mL,0.5 µg/mL,0.5 µg/mL,1 µg/mL,> 32 µg/mL,1 µg/mL,–,0.5 µg/mL,4 µg/mL,1 µg/mL,"C[C@@H]1CN[C@@H](CONC(=O)[C@@H]2CC[C@@H]3CN2C(=O)N3OS(=O)(=O)O)C1 [Example 3, (2S,5R)—N-{[(2R,4S)-4-Methyl-pyrrolidin-2-yl]methyloxy}-7-oxo-6-(sulfooxy)-1,6-diazabicyclo[3.2.1]octane-2-carboxamide]",–
–,2 µg/mL,–,–,2 µg/mL,2 µg/mL,2 µg/mL,1 µg/mL,–,2 µg/mL,1 µg/mL,1 µg/mL,1 µg/mL,> 32 µg/mL,1 µg/mL,–,1 µg/mL,4 µg/mL,2 µg/mL,O=C(NOC[C@@H]1C[C@@H](CF)CN1)[C@@H]1CC[C@@H]2CN1C(=O)N2OS(=O)(=O)O [Example 10],–
> 32 µg/mL,1 µg/mL,> 32 µg/mL,> 32 µg/mL,2 µg/mL,1 µg/mL,1 µg/mL,0.5 µg/mL,> 32 µg/mL,2 µg/mL,1 µg/mL,0.5 µg/mL,1 µg/mL,> 32 µg/mL,1 µg/mL,> 32 µg/mL,1 µg/mL,4 µg/mL,1 µg/mL,"C[C@@H]1CN[C@H](CONC(=O)[C@@H]2CC[C@@H]3CN2C(=O)N3OS(=O)(=O)O)C1 [Example 2, (2S,5R)—N-{[(2S,4S)-4-Methyl-pyrrolidin-2-yl]methyloxy}-7-oxo-6-(sulfooxy)-1,6-diazabicyclo[3.2.1]octane-2-carboxamide]",antibacterial effect in combination [1]: unusual and unexpected synergistic antibacterial effect; antibacterial activity when used alone [1]: did not exhibit significant antibacterial activity
–,2 µg/mL,–,–,1 µg/mL,1 µg/mL,1 µg/mL,1 µg/mL,–,2 µg/mL,1 µg/mL,1 µg/mL,1 µg/mL,> 32 µg/mL,1 µg/mL,–,1 µg/mL,4 µg/mL,1 µg/mL,O=C(NOC[C@@H]1C[C@@H](CO)CN1)[C@@H]1CC[C@@H]2CN1C(=O)N2OS(=O)(=O)O [Example 5],–
–,4 µg/mL,–,–,4 µg/mL,2 µg/mL,2 µg/mL,2 µg/mL,–,8 µg/mL,4 µg/mL,2 µg/mL,4 µg/mL,> 32 µg/mL,2 µg/mL,–,2 µg/mL,4 µg/mL,4 µg/mL,NC[C@H]1CN[C@H](CONC(=O)[C@@H]2CC[C@@H]3CN2C(=O)N3OS(=O)(=O)O)C1 [Example 9],–
–,2 µg/mL,–,–,2 µg/mL,1 µg/mL,1 µg/mL,1 µg/mL,–,2 µg/mL,1 µg/mL,1 µg/mL,1 µg/mL,> 32 µg/mL,1 µg/mL,–,1 µg/mL,4 µg/mL,2 µg/mL,O=C(NOC[C@H]1C[C@H](CO)CN1)[C@@H]1CC[C@@H]2CN1C(=O)N2OS(=O)(=O)O [Example 7],–
> 32 µg/mL,–,> 32 µg/mL,> 32 µg/mL,–,–,–,–,> 32 µg/mL,–,–,–,–,–,–,> 32 µg/mL,–,–,–,"CC(C)(O/N=C(\C(=O)N[C@@H]1C(=O)N2C(C(=O)[O-])=C(C[n+]3ccccc3)CS[C@H]12)c1csc(N)n1)C(=O)O [Ceftazidime, reference compound]",antibacterial activity when used alone [1]: did not exhibit significant antibacterial activity
